Experiments:
COX-2 = target: T1, COX-2 (Homo sapiens, UniProt P35354); conditions: specificity for COX-2 over COX-1, background statement; cited from earlier work
T1 sequence (P35354 18-604): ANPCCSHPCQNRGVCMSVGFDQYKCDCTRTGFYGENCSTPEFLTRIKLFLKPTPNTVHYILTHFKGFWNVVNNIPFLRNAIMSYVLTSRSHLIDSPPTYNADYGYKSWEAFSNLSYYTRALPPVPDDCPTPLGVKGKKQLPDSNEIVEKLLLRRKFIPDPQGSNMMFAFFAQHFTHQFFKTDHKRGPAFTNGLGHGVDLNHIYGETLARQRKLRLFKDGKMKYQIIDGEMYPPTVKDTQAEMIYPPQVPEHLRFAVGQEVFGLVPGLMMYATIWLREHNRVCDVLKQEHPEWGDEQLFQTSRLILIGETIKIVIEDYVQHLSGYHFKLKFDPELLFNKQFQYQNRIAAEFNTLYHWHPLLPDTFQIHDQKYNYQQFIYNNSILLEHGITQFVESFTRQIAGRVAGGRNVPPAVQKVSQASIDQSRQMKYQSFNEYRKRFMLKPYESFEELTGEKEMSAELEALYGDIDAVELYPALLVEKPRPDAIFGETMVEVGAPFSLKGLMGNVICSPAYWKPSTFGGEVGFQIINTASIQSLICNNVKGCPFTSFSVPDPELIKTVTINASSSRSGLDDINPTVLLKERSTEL

COX-1 enzyme (ovine) = target: T2, COX-1 enzyme (ovine) (Ovis aries, UniProt P05979); test: COX-1 enzyme inhibition (COX-1 synthesis of PGE2); format: biochemical
T2 construct: purchased Cayman Chemical 60100
T2 sequence (P05979 25-600): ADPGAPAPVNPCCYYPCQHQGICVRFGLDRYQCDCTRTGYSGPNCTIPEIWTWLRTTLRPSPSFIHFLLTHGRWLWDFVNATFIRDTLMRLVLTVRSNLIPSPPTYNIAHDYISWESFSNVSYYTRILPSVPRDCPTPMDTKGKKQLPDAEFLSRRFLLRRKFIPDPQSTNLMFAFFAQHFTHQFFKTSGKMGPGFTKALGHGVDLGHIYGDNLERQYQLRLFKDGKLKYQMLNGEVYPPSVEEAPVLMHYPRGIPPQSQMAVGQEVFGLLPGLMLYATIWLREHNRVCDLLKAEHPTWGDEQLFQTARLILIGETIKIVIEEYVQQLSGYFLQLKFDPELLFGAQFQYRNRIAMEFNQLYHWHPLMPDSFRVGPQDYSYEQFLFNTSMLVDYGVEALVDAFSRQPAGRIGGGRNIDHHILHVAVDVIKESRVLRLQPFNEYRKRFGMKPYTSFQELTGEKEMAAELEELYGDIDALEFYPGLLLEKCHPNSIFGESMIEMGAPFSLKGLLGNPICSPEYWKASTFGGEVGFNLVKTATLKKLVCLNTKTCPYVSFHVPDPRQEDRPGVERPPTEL
Description: Determination of COX-1 Enzyme Inhibition by Hops Extract—The ability of a test material to inhibit COX-1 synthesis of PGE2 was determined essentially as described by Noreen, Y., et al. (J. Nat. Prod. 61, 2-7, 1998). […]

SMILES | reported COX-2 specificity (COX-2) | IC50 (COX-1 enzyme (ovine)) [µM]
CC(=O)Oc1ccccc1C(=O)O [aspirin] | 0.6 | 
COc1cc(/C=C/C(=O)CC(=O)/C=C/c2ccc(O)c(OC)c2)ccc1O [curcumin] |  | 27.1
